Values joined by “and” are separate entries in the source; they are usually repeats but may differ in a detail not shown here. Equal values may be shown once.
Assays:
[1] = test system: non D1R containing control cells; assay: Forskolin stimulated cAMP accumulation in non D1R containing control cells; type: cell-based
human D1R [2] = target: T1, human D1R (Homo sapiens, UniProt P21728); assay: D1R β-arrestin recruitment assay (DiscoverX PathHunter, CHO-K1 cells); parameters: Emax: dose or concentration left out as unconfirmed; settings: for increase in dopamine potency (EC50) for β-arrestin recruitment to D1R: 50 μM compound vs DA alone; for Emax: CHO-K1, read-out: increase in dopamine efficacy (Emax) for β-arrestin recruitment to D1R; for agonist activity of PAM alone, β-arrestin recruitment: concentration response with the PAM, no dopamine; for effect on potency of D1R partial agonists: fenoldopam, apomorphine, SKF38393, SKF77434; for D1 Beta-Arrestin: DA + 50 μM PAM, Fold Chg EC50: fold change of dopamine EC50, 50 μM compound; for log β (modulatory effect on dopamine efficacy) / β (modulatory effect on dopamine efficacy): operational model of allosterism; for increase in SKF77434-stimulated response: partial agonist SKF77434 + PAM, text says cAMP accumulation, FIG. 5D legend β-arrestin; for increase in efficacy of SKF38393 / increase in efficacy of apomorphine / increase in efficacy of fenoldopam: β-arrestin recruitment; for increase in efficacy of SKF38393: G-protein biased partial agonist SKF38393 + PAM; for increase in efficacy of apomorphine: partial agonist apomorphine + PAM; for increase in efficacy of fenoldopam: partial agonist fenoldopam + PAM
T1 sequence (P21728 whole entry): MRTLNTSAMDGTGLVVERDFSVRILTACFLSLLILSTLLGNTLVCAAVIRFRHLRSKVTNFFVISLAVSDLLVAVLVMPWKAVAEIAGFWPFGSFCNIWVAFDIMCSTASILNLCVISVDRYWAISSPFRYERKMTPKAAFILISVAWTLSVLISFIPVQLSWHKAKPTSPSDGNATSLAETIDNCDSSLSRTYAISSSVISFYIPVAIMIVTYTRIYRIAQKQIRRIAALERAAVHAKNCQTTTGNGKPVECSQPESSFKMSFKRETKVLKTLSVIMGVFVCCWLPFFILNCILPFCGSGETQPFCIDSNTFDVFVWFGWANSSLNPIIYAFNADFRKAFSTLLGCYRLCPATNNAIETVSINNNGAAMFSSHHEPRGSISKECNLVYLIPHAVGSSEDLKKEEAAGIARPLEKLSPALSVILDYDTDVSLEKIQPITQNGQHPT
Method: β-arrestin Recruitment Assay. […] Following 18-24 h of incubation, the cells were treated with the indicated concentrations of compound in PBS buffer containing 0.2 mM sodium metabisulfite, and incubated at 37° C. for 90 min. DiscoverX reagent was added to cells according to the manufacturer's protocol, followed by a 60 min incubation in the dark at room temperature. Luminescence was measured on a Hamamatsu FDSS μ-Cell reader (Hamamatsu, Bridgewater, N.J.) and data were collected using the FDSS software.
The DiscoverX PathHunter β-Arrestin Assay was used to measure β-arrestin reuitment to the D1R following the manufacturer's instructions.

D5 [3] = target: T2, D5 (Homo sapiens, UniProt P21918); assay: D5 cAMP assay; settings: fold change of dopamine EC50, 50 μM compound
T2 sequence (P21918 whole entry): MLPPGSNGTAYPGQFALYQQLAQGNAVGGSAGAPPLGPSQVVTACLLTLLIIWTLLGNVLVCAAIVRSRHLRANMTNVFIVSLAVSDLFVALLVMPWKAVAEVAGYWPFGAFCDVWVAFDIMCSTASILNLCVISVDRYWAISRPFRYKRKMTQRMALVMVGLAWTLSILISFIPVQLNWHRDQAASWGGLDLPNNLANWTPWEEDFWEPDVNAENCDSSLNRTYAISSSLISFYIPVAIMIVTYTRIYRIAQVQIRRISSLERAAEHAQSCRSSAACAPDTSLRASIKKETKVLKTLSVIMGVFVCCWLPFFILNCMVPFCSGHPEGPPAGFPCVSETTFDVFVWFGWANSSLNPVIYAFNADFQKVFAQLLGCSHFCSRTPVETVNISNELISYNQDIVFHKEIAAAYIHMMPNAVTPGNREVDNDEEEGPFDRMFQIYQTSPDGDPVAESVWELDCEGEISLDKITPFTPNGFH
Method: (§2) cAMP Accumulation Assay. Assays were performed on D1R-HEK293 (Codex Biosolutions, Gaithersburg, Md.) cells stably expressing the human D1R. HEK293 cell lines were maintained in Dulbecco's modified Eagles medium, supplemented with 10% fetal bovine serum, 100 U/ml penicillin, 100 μg/ml streptomycin, 1 mM sodium pyruvate, and 250 μg/ml G418 and incubated at 37° C., 5% CO2, and 90% humidity. […] After 18-24 h incubation at 37° C., 5% CO2, and 90% humidity, the media was removed and replaced with 5 μL/well PBS. […] Briefly, antibody and working solution was added to each well according to the manufacturer's protocol, and incubated in the dark at room temperature for 60 min. Following incubation, enzyme acceptor reagent was added to the plates and luminescence (RLU) was measured (FDSS μCell, Hamamatsu Photonics K. K., Bridgewater, N.J.) following a 3 h incubation in the dark at room temperature.

human D1R [4] = target: T1, human D1R; assay: D1 cAMP accumulation assay (D1R-HEK293 cells, DiscoverX HitHunter); settings: for increase in dopamine potency for cAMP accumulation: 50 μM compound vs DA alone; for agonist activity for cAMP accumulation: compound alone; for D1 cAMP: DA + 50 μM PAM, Fold Chg EC50: fold change of dopamine EC50, 50 μM compound
Method: as §2

D4R [5] = target: T3, D4R (Homo sapiens, UniProt P21917); assay: D4 β-arrestin recruitment assay (DiscoverX PathHunter, CHO-K1 cells); type: cell-based; parameters: inferred from the same PathHunter system described for D1R and D5R; host or cells: CHO-K1; settings: for D4 Beta-Arrestin: DA + 50 μM PAM, Fold Change EC50: fold change of dopamine EC50, 50 μM compound
T3 sequence (P21917 1-419): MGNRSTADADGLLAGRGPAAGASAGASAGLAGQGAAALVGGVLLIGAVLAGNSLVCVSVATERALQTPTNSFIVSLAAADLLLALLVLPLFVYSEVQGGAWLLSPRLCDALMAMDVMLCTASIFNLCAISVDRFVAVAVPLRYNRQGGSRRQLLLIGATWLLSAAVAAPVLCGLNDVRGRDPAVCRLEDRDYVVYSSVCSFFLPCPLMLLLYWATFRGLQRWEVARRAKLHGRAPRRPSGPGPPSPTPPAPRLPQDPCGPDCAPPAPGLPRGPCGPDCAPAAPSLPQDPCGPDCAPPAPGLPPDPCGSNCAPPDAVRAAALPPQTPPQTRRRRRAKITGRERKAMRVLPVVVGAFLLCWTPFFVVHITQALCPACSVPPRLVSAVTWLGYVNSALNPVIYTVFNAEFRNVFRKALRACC
Method: (§1) β-arrestin Recruitment Assay. Agonist-mediated recruitment of β-arrestin-2 to all five DARs was determined using the DiscoveRx PathHunter complementation assay (DiscoverX Inc, Fremont, Calif.), as previously described (Free, et. al., 2014; Conroy, et. al., 2015). […] Following 18-24 h of incubation, the cells were treated with the indicated concentrations of compound in PBS buffer containing 0.2 mM sodium metabisulfite, and incubated at 37° C. for 90 min. DiscoverX reagent was added to cells according to the manufacturer's protocol, followed by a 60 min incubation in the dark at room temperature. Luminescence was measured on a Hamamatsu FDSS μ-Cell reader (Hamamatsu, Bridgewater, N.J.) and data were collected using the FDSS software.

D2R = D2R (Homo sapiens, UniProt P14416); assay: D2R β-arrestin BRET assay; settings: 50 μM compound
Chain of D2R (P14416 whole entry): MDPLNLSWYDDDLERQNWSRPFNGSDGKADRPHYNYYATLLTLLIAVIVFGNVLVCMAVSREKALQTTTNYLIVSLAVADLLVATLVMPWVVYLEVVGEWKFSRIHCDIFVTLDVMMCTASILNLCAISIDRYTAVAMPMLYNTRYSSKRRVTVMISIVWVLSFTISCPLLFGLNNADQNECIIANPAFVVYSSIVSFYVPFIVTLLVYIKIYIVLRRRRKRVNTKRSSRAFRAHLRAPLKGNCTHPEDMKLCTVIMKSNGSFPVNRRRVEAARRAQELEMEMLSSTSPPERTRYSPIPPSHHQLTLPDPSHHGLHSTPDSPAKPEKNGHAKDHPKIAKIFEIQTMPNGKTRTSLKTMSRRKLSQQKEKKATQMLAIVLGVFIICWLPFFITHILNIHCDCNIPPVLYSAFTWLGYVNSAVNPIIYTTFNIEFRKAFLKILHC
Method: (§3) Bioluminescence Resonance Energy Transfer (BRET) Assays. Experiments were performed in HEK239 cells transiently transfected with D1R-RLuc8 and β-arrestin-mVenus (β-arrestin BRET) or Gαs-mVenus+β1+γ2 (Gs BRET) using the polyethylenimine (PEI) transfection method. […] Appropriate amounts of DNA were combined with 3 μg/μL PEI per μg of DNA in nonsupplemented DMEM and incubated with the cells overnight. Experiments were performed 48 hours post-transfection. On experiment day, cells were collected and resuspended in Dulbecco's Phosphate-Buffered Saline (DPBS) with Ca2+ and Mg2++0.2 mM sodium metabisulfite+5.5 mM glucose.

D3R = D3R (Homo sapiens, UniProt P35462); assay: D3R β-arrestin BRET assay; settings: 50 μM compound
Chain of D3R (P35462 whole entry): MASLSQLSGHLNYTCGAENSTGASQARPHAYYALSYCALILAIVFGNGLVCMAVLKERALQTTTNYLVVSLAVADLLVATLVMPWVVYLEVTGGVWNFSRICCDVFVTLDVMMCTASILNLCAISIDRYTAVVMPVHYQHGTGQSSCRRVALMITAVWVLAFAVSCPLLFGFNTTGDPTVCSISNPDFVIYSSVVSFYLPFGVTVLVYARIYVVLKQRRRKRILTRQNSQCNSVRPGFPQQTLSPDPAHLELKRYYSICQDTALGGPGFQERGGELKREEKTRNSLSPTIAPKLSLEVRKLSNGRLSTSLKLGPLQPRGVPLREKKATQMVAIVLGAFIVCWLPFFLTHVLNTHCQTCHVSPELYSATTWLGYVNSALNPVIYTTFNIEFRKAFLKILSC
Method: as §3

human D1R [6] = target: T1, human D1R; assay: [3H]-SCH23390 radioligand competition binding (HEK293 D1R membranes), incl. allosteric ternary complex model; settings: for log α / α (binding cooperativity between PAM and dopamine): allosteric ternary complex model; for effect on [3H]-SCH23390 binding: compound alone, up to 50 μM; for leftward shift of dopamine competition curve (increase in dopamine affinity): dopamine competition with [3H]-SCH23390, increasing concentrations of compound; for decrease of [3H]-SCH23390 binding: highest concentration tested, 50 μM
D4R [7] = target: T3, D4R; assay: D4R β-arrestin BRET assay; settings: 50 μM compound
Method: as §3

β2AR = β2AR (Homo sapiens, UniProt P07550); assay: β2AR β-arrestin BRET assay; settings: 50 μM compound
Chain of β2AR (P07550 whole entry): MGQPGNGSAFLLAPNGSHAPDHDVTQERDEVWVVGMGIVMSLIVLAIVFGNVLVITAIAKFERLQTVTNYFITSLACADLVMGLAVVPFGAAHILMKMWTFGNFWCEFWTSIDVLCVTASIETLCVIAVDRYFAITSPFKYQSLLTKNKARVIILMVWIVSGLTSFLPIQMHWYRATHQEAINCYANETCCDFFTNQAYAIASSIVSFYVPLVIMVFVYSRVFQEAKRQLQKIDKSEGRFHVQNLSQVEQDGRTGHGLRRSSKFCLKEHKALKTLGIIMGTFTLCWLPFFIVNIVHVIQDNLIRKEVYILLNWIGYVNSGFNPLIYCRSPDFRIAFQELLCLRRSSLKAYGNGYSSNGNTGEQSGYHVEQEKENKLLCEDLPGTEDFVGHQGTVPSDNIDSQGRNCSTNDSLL
Method: as §3

D5 [8] = target: T2, D5; assay: D5R β-arrestin recruitment assay (DiscoverX PathHunter, CHO cells); type: cell-based; parameters: host or cells: CHO-K1; settings: for D5 Beta-Arrestin: DA + 50 μM PAM, Fold Change EC50: fold change of dopamine EC50, 50 μM compound; for agonist response of PAM alone at D5R: in the absence of DA
Method: as §1, with “Assay.” for “Assay. Agonist-mediated recruitment of β-arrestin-2 to all five DARs was determined using the DiscoveRx PathHunter complementation assay (DiscoverX Inc, Fremont, Calif.), as previously described (Free, et. al., 2014; Conroy, et. al., 2015).”
Each PAM was also examined in the absence of DA as an agonist, as indicated.

Row | Kb (human D1R [2]) [nM] | increase in dopamine potency (EC50) for β-arrestin recruitment to D1R (human D1R [2]) | Emax (human D1R [2]) [%] | effect on potency of D1R partial agonists (human D1R [2]) | D1 Beta-Arrestin: DA + 50 μM PAM, Fold Chg EC50 (human D1R [2]) | log β (modulatory effect on dopamine efficacy) (human D1R [2]) | β (modulatory effect on dopamine efficacy) (human D1R [2]) | increase in SKF77434-stimulated response (human D1R [2]) [%] | increase in efficacy of SKF38393 (human D1R [2]) [%] | increase in efficacy of apomorphine (human D1R [2]) [%] | increase in efficacy of fenoldopam (human D1R [2]) [%] | D5 cAMP: DA + 50 μM PAM, Fold Change EC50 (D5 [3]) | increase in dopamine potency for cAMP accumulation (human D1R [4]) | D1 cAMP: DA + 50 μM PAM, Fold Chg EC50 (human D1R [4]) | D4 Beta-Arrestin: DA + 50 μM PAM, Fold Change EC50 (D4R [5]) | SMILES | effect on forskolin stimulated cAMP accumulation [1] | agonist activity of PAM alone, β-arrestin recruitment (human D1R [2]) | agonist activity for cAMP accumulation (human D1R [4]) | potentiation of dopamine response at D2R (D2R) | potentiation of dopamine response at D3R (D3R) | also measured
1 | 460 | 7 fold and 5 fold and 4.6 fold | 20 | Neither PAM altered the potency | 4.64 | 0.41±0.06 | 2.57 | 130 | 111 | 95 | 48 | 2.14 | 3 fold | 1.83 | 1.06 | Cn1c2ccccc2c(=O)c2c(=O)n(-c3ccccc3)c(C3CCCCC3)nc21 [Compound 1, 2-Cyclohexyl-10-methyl-3-phenylpyrimido[4,5-b]quinoline-4,5(3H,10H)-dione] | does not significantly increase | Neither PAM displayed any measurable agonist activity | Neither compound 1 (FIGS. 3A and 3B) nor compound 28 (FIGS. 3C and 3D) demonstrated any agonist activity | Neither PAM produced any measurable potentiation | Neither PAM produced any measurable potentiation | Dopamine D1-β-arrestin Assay: DA + 50 μM PAM, Fold Change EC50 (human D1R [2]; Table 5, 50 μM compound): 4.64; Dopamine D4-β-arrestin Assay: DA + 50 μM PAM, Fold Change EC50 (D4R [5]; Table 7, 50 μM compound): 1.06; Kb (human D1R [6]): 540 nM; log α (human D1R [6]): 0.49±0.07; α (binding cooperativity between PAM and dopamine) (human D1R [6]): 3.09; effect on [3H]-SCH23390 binding (human D1R [6]): no displacement; leftward shift of dopamine competition curve (increase in dopamine affinity) (human D1R [6]): ~3 fold; decrease of [3H]-SCH23390 binding (human D1R [6]): ~17%; potentiation of dopamine response at D4R (D4R [7]): Neither PAM produced any measurable potentiation; potentiation of epinephrine response at β2AR (β2AR): Neither PAM produced any measurable potentiation; fold change of dopamine EC50 for β-arrestin recruitment to D5R (D5 [8]; 50 μM compound): 2.5 fold; Dopamine D5-β-arrestin Assay: DA + 50 μM PAM, Fold Change EC50 (D5 [8]; Table 6, 50 μM compound): 2.56; D5 Beta-Arrestin: DA + 50 μM PAM, Fold Change EC50 (D5 [8]): 2.56; agonist response of PAM alone at D5R (D5 [8]): Neither PAM produced an agonist response
2 | 5400 | 8 fold | 34 | Neither PAM altered the potency | 8.29 | 0.32±0.1 | 2.09 | 96 | 151 | 134 | 83 | 1.63 | 5 fold and 4 fold | 2.93 | 1.72 | CC(C)(C)C1CCc2c(sc(NC(=O)c3ccncc3)c2C(N)=O)C1 (centres unmarked) [Compound 28] | no increase | Neither PAM displayed any measurable agonist activity | Neither compound 1 (FIGS. 3A and 3B) nor compound 28 (FIGS. 3C and 3D) demonstrated any agonist activity | Neither PAM produced any measurable potentiation | Neither PAM produced any measurable potentiation | Kb (human D1R [6]): 5370 nM; log α (human D1R [6]): 0.82±0.11; α (binding cooperativity between PAM and dopamine) (human D1R [6]): 6.61; effect on [3H]-SCH23390 binding (human D1R [6]): complete inhibition; leftward shift of dopamine competition curve (increase in dopamine affinity) (human D1R [6]): ~7 fold; decrease of [3H]-SCH23390 binding (human D1R [6]): ~66%; potentiation of dopamine response at D4R (D4R [7]): Neither PAM produced any measurable potentiation; potentiation of epinephrine response at β2AR (β2AR): Neither PAM produced any measurable potentiation; D5 Beta-Arrestin: DA + 50 μM PAM, Fold Change EC50 (D5 [8]): 1.25; agonist response of PAM alone at D5R (D5 [8]): Neither PAM produced an agonist response
3 |  |  |  |  |  |  |  |  |  |  |  |  |  |  |  | CC(C)(C)C1CCc2c(sc(NC(=O)c3cccnc3)c2C(N)=O)C1 (centres unmarked) [Example 2.3, N-(6-(Tert-butyl)-3-carbamoyl-4,5,6,7-tetrahydrobenzo[b]thiophen-2-yl)nicotinamide] |  |  |  |  |  | melting point: 195 to 209 °C

Source: patent US20210040074A1 (The United States of America,as represented by the …, priority 2018, published 2021)
